Results from patent publication US10221426B2, “Constitutively active PYR/PYL receptor proteins for improving plant stress tolerance” (The Regents of the University of California, priority 2009, dated 2019).

Key:
[1] = target: T1, PYL4-HAB1 (Arabidopsis thaliana, UniProt O80920); experiment: Yeast two-hybrid BD-PYL4 / AD-HAB1 interaction; assay type: cell-based
T1 construct: BD-PYR/PYL fusion proteins were constructed in the same manner as for BD-PYR1 above; expressed in transfected cells; host or cells: yeast (Y190, as for BD-PYR1)
T1 sequence (O80920 1-207): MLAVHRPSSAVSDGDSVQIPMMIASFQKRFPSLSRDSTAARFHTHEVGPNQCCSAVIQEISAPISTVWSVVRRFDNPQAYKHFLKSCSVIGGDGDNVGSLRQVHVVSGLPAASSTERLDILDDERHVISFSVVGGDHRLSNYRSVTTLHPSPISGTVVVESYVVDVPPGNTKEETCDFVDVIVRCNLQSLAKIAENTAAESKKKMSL
T1 sequence (Q9CAJ0 23-511 partner): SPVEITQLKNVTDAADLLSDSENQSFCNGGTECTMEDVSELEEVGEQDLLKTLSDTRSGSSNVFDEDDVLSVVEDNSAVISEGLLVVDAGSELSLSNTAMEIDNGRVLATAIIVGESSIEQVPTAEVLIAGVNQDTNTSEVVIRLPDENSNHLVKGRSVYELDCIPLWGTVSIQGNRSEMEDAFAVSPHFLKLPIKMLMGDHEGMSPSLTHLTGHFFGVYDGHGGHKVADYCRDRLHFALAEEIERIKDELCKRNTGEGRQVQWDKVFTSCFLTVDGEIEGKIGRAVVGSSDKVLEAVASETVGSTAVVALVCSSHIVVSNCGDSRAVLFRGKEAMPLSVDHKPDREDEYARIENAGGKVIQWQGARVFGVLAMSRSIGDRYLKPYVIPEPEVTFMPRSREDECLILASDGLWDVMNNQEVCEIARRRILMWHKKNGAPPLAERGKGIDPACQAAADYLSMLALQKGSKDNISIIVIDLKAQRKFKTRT
Method: (§1) Given that PYR1 is necessary for pyrabactin action and is a predicted ligand-binding protein, we hypothesized that pyrabactin agonizes ABA signaling by inducing a protein-protein interaction between PYR1 and a downstream effector. To test this, ˜2 million prey cDNA clones were screened against a PYR1 Y2H bait construct on media containing 10 μM pyrabactin. To create the PYR1 Y2H bait construct, the Pyr1 open reading frame was PCR amplified from genomic DNA and cloned to pGem-T easy vector (Promega). After sequence confirmation, the Pyr1 ORF was then cloned in-frame between EcoRI and SalI sites of the pBD-GAL4 Cam vector (Stratagene) and transformed into yeast strain Y190. For the screen, an etiolated seedling cDNA library (J. Kim, K., Harter, A., Theologis, Proc Natl Acad Sci USA 94, 11786 (Oct. 28, 1997)) (ABRC stock CD4-22) was used. The cDNA library was first converted from phage to plasmid DNA, yielding 7.6×10^7 transformants. Plasmid DNA prepared from library was then used to transform Y190 as described in the GAL4 Two-Hybrid system manual (Stratagene). For each screen, 40 μg of prey plasmid was transformed into 1 ml of competent Y190 cell harboring bait construct and then grown on SD agar plates lacking His, Leu, and Trp, but containing 15 mM 3-AT and 10 μM pyrabactin. After 4 days incubation at 30° C., well-grown colonies were rescued and interactions validated using filter lift assay or chloroform-agarose overlay method and X-Gal staining. This identified two pyrabactin-dependent hits which sequencing determined encoded cDNAs for the PP2C HAB1, a close relative of the well-characterized ABA response factor ABI1 (A. Saez et al., The Plant Journal 37, 354 (2004); N. Leonhardt et al., THE PLANT CELL 16, 596 (2004)). Next, Y2H strains expressing an AD-HAB1 fusion protein and a BD-PYR1 fusion protein were grown on plates and tested for interactions in response to various compounds, all at 10 μM except for epi-brassinolide (50 nM) and dimethyl sulfoxide (DMSO) (carrier solvent, 1%). […] Thus, PYR1 interacts with HAB1 in a (+)-ABA dependent fashion.
To see if ABA and pyrabactin responsiveness is unique to PYR1, we tested 11 of the 13 PYL proteins as described above, using Y2H strains expressing an AD-HAB1 fusion protein and a BD-PYR/PYL fusion protein (listed at the left of FIG. 3A). BD-PYR/PYL fusion proteins were constructed in the same manner as for BD-PYR1 above. […] Of these, only Pyr1 is highly transcribed in seeds, which likely explains why mutations in Pyr1 cause the seeds to be insensitive to pyrabactin. […] However the interactions of PYLs 5-12 with the PP2Cs are indicative that the entire protein family is likely to share a similar mechanism of action involving PP2C modulation, as we describe below. […]

[2] = target: T2, PYL3-HAB1 (Arabidopsis thaliana, UniProt Q9SSM7); experiment: Yeast two-hybrid BD-PYL3 / AD-HAB1 interaction; assay type: cell-based
T2 construct: BD-PYR/PYL fusion proteins were constructed in the same manner as for BD-PYR1 above; expressed in transfected cells; host or cells: yeast (Y190, as for BD-PYR1)
T2 sequence (Q9SSM7 1-209): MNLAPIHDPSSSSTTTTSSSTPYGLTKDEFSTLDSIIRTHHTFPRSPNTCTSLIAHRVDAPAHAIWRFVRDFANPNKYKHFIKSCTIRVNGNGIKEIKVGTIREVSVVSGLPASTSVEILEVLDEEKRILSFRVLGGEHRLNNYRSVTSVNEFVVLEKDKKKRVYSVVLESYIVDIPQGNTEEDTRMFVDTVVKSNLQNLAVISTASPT
T2 sequence (Q9CAJ0 23-511 partner): T1 sequence (Q9CAJ0 23-511 partner)
Method: as §1
To see if ABA and pyrabactin responsiveness is unique to PYR1, we tested 11 of the 13 PYL proteins as described above, using Y2H strains expressing an AD-HAB1 fusion protein and a BD-PYR/PYL fusion protein (listed at the left of FIG. 3A). BD-PYR/PYL fusion proteins were constructed in the same manner as for BD-PYR1 above. […] Of these, only Pyr1 is highly transcribed in seeds, which likely explains why mutations in Pyr1 cause the seeds to be insensitive to pyrabactin. […] However the interactions of PYLs 5-12 with the PP2Cs are indicative that the entire protein family is likely to share a similar mechanism of action involving PP2C modulation, as we describe below. Thus, we conclude that entire family modulates ABA responses via PP2C interactions.
The yeast strains expressing PYR/PYL receptors and type 2 C protein phosphatases were also used to screen HPLC-fractionated plant extracts for the presence of endogenous compounds that activate PYL/PYL receptors PYR1, PYL2, PYL3, and/or PYL4. HPLC fractionation of extracts was used to identify compounds different from abscisic acid (the known agonist). […] Purification of the agonist was achieved via multiple rounds of chromatographic separation coupled to yeast two hybrid assays that informed the fractions to move forward at each step of the purification. The structure of the purified agonist was deduced by X-ray crystallography of crystalline purified agonist.

[3] = target: T3, PYR1-HAB1 (Arabidopsis thaliana, UniProt O49686); experiment: Yeast two-hybrid BD-PYR1 / AD-HAB1 interaction, X-gal stain; assay type: cell-based; conditions: 10 μM, except epi-brassinolide (50 nM)
T3 construct: the Pyr1 open reading frame was PCR amplified from genomic DNA; expressed in transfected cells; host or cells: yeast strain Y190
T3 sequence (O49686 1-191): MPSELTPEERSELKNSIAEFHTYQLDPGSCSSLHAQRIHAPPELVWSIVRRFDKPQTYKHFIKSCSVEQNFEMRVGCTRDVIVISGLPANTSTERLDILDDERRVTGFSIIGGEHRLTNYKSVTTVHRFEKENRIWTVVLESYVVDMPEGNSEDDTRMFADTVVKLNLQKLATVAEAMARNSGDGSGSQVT
T3 sequence (Q9CAJ0 23-511 partner): T1 sequence (Q9CAJ0 23-511 partner)
Method: as §1

[4] = target: T4, PYL2-HAB1 (Arabidopsis thaliana, UniProt O80992); experiment: Yeast two-hybrid BD-PYL2 / AD-HAB1 interaction, X-gal stain; assay type: cell-based; conditions: 10 μM
T4 construct: BD-PYR/PYL fusion proteins were constructed in the same manner as for BD-PYR1 above; expressed in transfected cells; host or cells: yeast (Y190, as for BD-PYR1)
T4 sequence (O80992 1-190): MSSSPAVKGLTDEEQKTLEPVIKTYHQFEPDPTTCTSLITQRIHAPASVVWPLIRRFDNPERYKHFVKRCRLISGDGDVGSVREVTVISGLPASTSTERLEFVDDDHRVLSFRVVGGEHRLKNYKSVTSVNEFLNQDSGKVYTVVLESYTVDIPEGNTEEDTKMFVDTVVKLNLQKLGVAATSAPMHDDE
T4 sequence (Q9CAJ0 23-511 partner): T1 sequence (Q9CAJ0 23-511 partner)
Method: as §1, with “fashion. […]” for “fashion.”

[5] = system: Arabidopsis seeds; experiment: Seed germination inhibition; assay type: in vivo; conditions: in vivo
Method: FIG. 1. Pyrabactin is a seed selective ABA agonist. (A) Structures of molecules described in this study. (B) Pyrabactin activity is suppressed by abi1-1. Seeds of the genotype shown at top were imbibed on media containing 25 μM pyrabactin and scored for germination 4 days after stratification. Shown at bottom are IC50 values for pyrabactin's germination effect on the genotypes characterized. (C) Microarray comparison of pyrabactin and ABA treatments in seeds. The Y-axis plots the log2 transformed value for a probe's response to 25 μM pyrabactin (relative to untreated control) and the X-axis a probe's response to 1 μM ABA. […] (D) Microarray comparison of cycloheximide and ABA responses in seeds. […] (E) Microarray comparison of pyrabactin and ABA responses in seedlings. Seven-day old seedlings were transferred to 10 μM ABA or 50 μM pyrabactin containing plates for 24 hours and then mRNA samples profiled. Inset in each scatter plot is the Pearson correlation coefficient for each comparison. Detailed microarray methods are described in the Examples section.
FIG. 2. PYR1 encodes an ABA responsive START-domain protein. (A) Pyr1 alleles. Shown are the allele names, strain names (in parentheses) and amino acid changes caused by the Pyr1 mutant alleles identified by screening for pyrabactin resistant mutations. (B) Pictographic representation of Pyr1 and Pyl1-Pyl4 expression values housed in public microarray databases. The heatmap shown at top right is for the first upper three panels and the bottom heatmap for the guard cell data. Plots were made using the eFP browser (D. Winter et al., PLoS ONE 2, e718 (2007)). (C) 35S::GFP-PYR1 complements pyr1-1. Seeds of the genotypes shown were stratified 4 days on 25 μM pyrabactin and then germinated at RT, 90% RH for 3 days in darkness. […] (D) Pyr/Pyls are required for normal ABA-induced gene expression in seedlings. Shown are qRT-PCR results for the ABA-responsive gene RD29. L, Ler; C, Col; and Q, quadruple mutant. (E) Pyr/Pyl genes are required for normal ABA-induced stress-induced gene expression in seedlings. Shown are qRT-PCR results for two ABA-responsive taqman probes, as described in the Examples section. L=Ler, C=Col, Q=quadruple mutant.
As part of an earlier effort, we identified a germination inhibitor named pyrabactin (Y. Zhao et al., Nat Chem Biol 3, 716 (2007)). […] To test this hypothesis, we examined the pyrabactin sensitivity of mutant lines with altered ABA signaling, biosynthesis or gibberellic acid (GA) perception.
We next performed microarray experiments to evaluate the similarity of the transcriptional responses induced by ABA and pyrabactin treatments. For microarray, tissue was prepared and RNA extracted from Columbia wild type seeds sown on 0.5×MS media (˜2500 seeds per 150 mm plate) containing either 1 μM ABA, 25 μM pyrabactin, 25 μM 2,4-Dinitrophenol (DNP), 1 μM cycloheximide, 2 μM methotrexate or 1% DMSO control plates (all chemicals are dissolved in DMSO). The concentrations utilized for these experiments were normalized for germination inhibition activity by dose curve analyses, i.e. the amount of both compounds required to ensure 100% inhibition of germination when scored 3 days post-imbibition. ABA (±stereoisomers), DNP, cycloheximide and methotrexate were purchased from Sigma Aldrich. Seeds were stratified for 4 days and then incubated in the dark at room temperature for 24 hours. […]

[6] = plant extract screen and related commercial compounds

## C=C(C(=O)O)[C@@H]1CC[C@@H](C)[C@@H]2CCC(C)=C[C@@H]21 [artemisinic acid]
[1]; [6]
  PYL4 agonist activity in yeast two hybrid assays: PYL3/PYL4 selective agonist
[2]; [6]
  PYL3 agonist activity in yeast two hybrid assays: PYL3/PYL4 selective agonist

## c1coc(CNc2ncnc3[nH]cnc23)c1 [kinetin]
[3]
  PYR1-HAB1 interaction by X-gal stain: neither (−)-ABA, kinetin, 2,4-D, Gibberellic acid (GA), epi-brassinolide (BR), methyl jasmonate (meJA) or apyrabactin showed activity

## CC/C=C\CC1C(=O)CCC1CC(=O)OC (stereo not shown) [methyl jasmonate]
[3]
  PYR1-HAB1 interaction by X-gal stain: neither (−)-ABA, kinetin, 2,4-D, Gibberellic acid (GA), epi-brassinolide (BR), methyl jasmonate (meJA) or apyrabactin showed activity

## C=C1C[C@]23C[C@@]1(O)CC[C@H]2[C@@]12C=C[C@H](O)[C@@](C)(C(=O)O1)[C@H]2[C@@H]3C(=O)O [Gibberellic acid]
[3]
  PYR1-HAB1 interaction by X-gal stain: neither (−)-ABA, kinetin, 2,4-D, Gibberellic acid (GA), epi-brassinolide (BR), methyl jasmonate (meJA) or apyrabactin showed activity

## (−)-ABA
[1]; 10 μM
  PYL4-HAB1 interaction by X-gal stain: respond
[3]
  PYR1-HAB1 interaction by X-gal stain: neither (−)-ABA, kinetin, 2,4-D, Gibberellic acid (GA), epi-brassinolide (BR), methyl jasmonate (meJA) or apyrabactin showed activity
[2]; 10 μM
  PYL3-HAB1 interaction by X-gal stain: respond
[4]
  PYL2-HAB1 interaction by X-gal stain: respond

## O=S(=O)(NCc1ccccc1)c1ccc(Br)c2ccccc12 [apyrabactin]
[3]
  PYR1-HAB1 interaction by X-gal stain: neither (−)-ABA, kinetin, 2,4-D, Gibberellic acid (GA), epi-brassinolide (BR), methyl jasmonate (meJA) or apyrabactin showed activity
[5]
  effect on germination: inactive analog

## CC(C)[C@@H](C)[C@@H](O)[C@H](O)[C@@H](C)[C@H]1CC[C@H]2[C@@H]3COC(=O)[C@H]4C[C@H](O)[C@H](O)C[C@]4(C)[C@H]3CC[C@]12C [epi-brassinolide]
[3]
  PYR1-HAB1 interaction by X-gal stain: neither (−)-ABA, kinetin, 2,4-D, Gibberellic acid (GA), epi-brassinolide (BR), methyl jasmonate (meJA) or apyrabactin showed activity

## O=C(O)COc1ccc(Cl)cc1Cl [2,4-D]
[3]
  PYR1-HAB1 interaction by X-gal stain: neither (−)-ABA, kinetin, 2,4-D, Gibberellic acid (GA), epi-brassinolide (BR), methyl jasmonate (meJA) or apyrabactin showed activity
